Experimental data taken from PMC9428768 (RSC Chemical Biology, 2022).

Key:
PBD = details: cited from earlier work
HeLa cells = test: MTT assay; assay type: cell-based; details: Homo sapiens, 48 h, read-out: Cytotoxicity (HeLa cells)

Compound | less PBD-binding affinity than peptide 2 (PBD) | IC50 (HeLa cells) [nM]
PLHSpT [Ligand 1] | approximately 1000 fold | –
CC[C@@H]1C(=O)N(C)c2cnc(Nc3ccc(C(=O)NC4CCN(C)CC4)cc3OC)nc2N1C1CCCC1 [BI2536] | – | 32 ± 1.6
